The record followed here is ChEMBL document CHEMBL1155132, “Synthesis and structure-activity relationship of 1H-indole-3-carboxylic acid pyridine-3-ylamides: a novel series of 5-HT2C receptor antagonists” (Bioorg Med Chem Lett, 2008).

The structures appear in SMILES notation. A value given as a limit tells only on which side of the number the result lay.

Assay [1] concerns the target T1, 5-hydroxytryptamine receptor 2C (Homo sapiens, UniProt P28335).
T1 sequence (P28335 whole entry): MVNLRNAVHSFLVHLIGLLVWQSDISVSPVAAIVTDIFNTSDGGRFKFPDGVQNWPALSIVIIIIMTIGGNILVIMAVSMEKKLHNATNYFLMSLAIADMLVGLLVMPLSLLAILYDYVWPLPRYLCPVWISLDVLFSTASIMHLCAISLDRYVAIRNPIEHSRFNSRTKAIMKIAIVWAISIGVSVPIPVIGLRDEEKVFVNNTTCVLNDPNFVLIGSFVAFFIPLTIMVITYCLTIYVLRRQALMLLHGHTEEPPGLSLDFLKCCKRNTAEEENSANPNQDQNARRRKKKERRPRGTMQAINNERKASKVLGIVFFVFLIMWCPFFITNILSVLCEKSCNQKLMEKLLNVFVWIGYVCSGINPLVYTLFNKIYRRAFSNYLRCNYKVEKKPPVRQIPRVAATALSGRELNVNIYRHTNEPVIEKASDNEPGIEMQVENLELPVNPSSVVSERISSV
Put plainly: Displacement of [3H]mesulergine at human cloned 5HT2C receptor expressed in CHOK1 cell. The assay is classed as cell-based, CHO-K1. Background: Loss of bound radioactivity is the signal in a displacement assay; it reports binding, not function.

Assay [2] has as its target 5-hydroxytryptamine receptor 7 (Homo sapiens, UniProt P34969). Put plainly: Displacement of [3H]LSD from human cloned 5HT7 receptor.
Assay [3] has as its target T2, 5-hydroxytryptamine receptor 1A (Homo sapiens, UniProt P08908).
T2 sequence (P08908 whole entry): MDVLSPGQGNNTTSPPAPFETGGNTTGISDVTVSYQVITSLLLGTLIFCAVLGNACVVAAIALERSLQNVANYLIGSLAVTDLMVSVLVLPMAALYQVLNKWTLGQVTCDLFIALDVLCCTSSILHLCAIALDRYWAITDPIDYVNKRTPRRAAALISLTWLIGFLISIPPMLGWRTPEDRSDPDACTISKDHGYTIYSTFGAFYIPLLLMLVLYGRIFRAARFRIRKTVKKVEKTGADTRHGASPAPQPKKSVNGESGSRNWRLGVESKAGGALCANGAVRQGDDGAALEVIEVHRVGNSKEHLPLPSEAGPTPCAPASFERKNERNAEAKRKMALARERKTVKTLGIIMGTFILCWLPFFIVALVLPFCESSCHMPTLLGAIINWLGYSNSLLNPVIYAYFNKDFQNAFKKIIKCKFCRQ
As to the kind of experiment: Displacement of [3H]8-OH-DPAT from human cloned 5HT1A receptor.

The target of a further assay is D(3) dopamine receptor (Homo sapiens, UniProt P35462). Put plainly: Displacement of [3H]spiperone from human cloned dopamine D3 receptor.
In assay [4] the target is 5-hydroxytryptamine receptor 6 (Homo sapiens, UniProt P50406). Put plainly: Displacement of [3H]LSD from human cloned 5HT6 receptor.
The target of a further assay is D(2) dopamine receptor (Homo sapiens, UniProt P14416). As to the kind of experiment: Displacement of [3H]spiperone from human cloned dopamine D2 receptor.
The target in a further assay is T3, D(4) dopamine receptor (Homo sapiens, UniProt P21917).
T3 sequence (P21917 whole entry): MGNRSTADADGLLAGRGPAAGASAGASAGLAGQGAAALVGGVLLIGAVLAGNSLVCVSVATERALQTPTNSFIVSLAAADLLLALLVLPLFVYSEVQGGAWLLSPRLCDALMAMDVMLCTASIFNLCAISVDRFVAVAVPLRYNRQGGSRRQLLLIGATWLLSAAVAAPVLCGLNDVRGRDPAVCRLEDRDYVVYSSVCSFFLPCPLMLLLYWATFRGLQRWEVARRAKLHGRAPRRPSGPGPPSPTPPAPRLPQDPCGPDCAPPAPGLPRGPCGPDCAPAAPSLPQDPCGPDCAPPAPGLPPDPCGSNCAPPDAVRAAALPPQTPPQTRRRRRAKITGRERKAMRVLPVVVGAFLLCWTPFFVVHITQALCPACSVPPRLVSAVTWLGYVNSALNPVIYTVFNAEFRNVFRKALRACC
Put plainly: Displacement of [3H]spiperone from human cloned dopamine D4 receptor.

Assay [5] has as its target 5-hydroxytryptamine receptor 2A (Homo sapiens, UniProt P28223). Put plainly: Displacement of [3H]ketanserin from human cloned 5HT2A receptor.

Sequence of D(2) dopamine receptor (P14416 whole entry): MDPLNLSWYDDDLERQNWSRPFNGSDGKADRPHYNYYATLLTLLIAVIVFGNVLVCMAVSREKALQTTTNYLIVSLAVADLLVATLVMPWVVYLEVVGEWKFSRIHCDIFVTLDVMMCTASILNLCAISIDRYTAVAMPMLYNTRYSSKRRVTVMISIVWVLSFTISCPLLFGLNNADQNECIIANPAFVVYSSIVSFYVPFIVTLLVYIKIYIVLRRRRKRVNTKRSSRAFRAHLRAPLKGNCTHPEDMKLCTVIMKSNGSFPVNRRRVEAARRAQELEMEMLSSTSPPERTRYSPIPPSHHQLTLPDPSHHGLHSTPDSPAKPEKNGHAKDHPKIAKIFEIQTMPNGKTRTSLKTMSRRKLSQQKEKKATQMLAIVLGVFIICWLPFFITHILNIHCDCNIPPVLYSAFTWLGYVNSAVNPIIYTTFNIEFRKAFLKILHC
Sequence of 5-hydroxytryptamine receptor 2A (P28223 whole entry): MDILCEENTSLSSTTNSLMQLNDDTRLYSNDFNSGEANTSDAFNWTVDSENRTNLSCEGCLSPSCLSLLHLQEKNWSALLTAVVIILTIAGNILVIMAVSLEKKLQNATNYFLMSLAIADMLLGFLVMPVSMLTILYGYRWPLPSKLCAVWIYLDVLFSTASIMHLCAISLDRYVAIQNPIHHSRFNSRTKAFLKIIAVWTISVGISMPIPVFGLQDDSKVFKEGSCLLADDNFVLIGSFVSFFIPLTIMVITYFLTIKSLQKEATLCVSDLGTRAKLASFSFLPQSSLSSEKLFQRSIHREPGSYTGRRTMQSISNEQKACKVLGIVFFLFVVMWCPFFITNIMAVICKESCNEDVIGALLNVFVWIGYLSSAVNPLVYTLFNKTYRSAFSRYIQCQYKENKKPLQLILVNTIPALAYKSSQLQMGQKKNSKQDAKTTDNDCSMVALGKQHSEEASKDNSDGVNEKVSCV
Sequence of 5-hydroxytryptamine receptor 6 (P50406 whole entry): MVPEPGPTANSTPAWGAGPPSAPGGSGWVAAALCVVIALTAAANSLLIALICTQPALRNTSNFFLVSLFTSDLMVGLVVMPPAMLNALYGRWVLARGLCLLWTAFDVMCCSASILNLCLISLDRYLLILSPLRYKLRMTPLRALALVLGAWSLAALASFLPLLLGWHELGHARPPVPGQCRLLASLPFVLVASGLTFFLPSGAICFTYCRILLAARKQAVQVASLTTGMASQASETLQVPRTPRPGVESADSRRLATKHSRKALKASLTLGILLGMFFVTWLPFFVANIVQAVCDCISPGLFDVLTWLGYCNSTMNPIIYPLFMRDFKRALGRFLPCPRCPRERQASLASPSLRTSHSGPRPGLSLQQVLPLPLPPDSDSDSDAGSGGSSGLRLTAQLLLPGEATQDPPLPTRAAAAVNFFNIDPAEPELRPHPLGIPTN
Sequence of D(3) dopamine receptor (P35462 whole entry): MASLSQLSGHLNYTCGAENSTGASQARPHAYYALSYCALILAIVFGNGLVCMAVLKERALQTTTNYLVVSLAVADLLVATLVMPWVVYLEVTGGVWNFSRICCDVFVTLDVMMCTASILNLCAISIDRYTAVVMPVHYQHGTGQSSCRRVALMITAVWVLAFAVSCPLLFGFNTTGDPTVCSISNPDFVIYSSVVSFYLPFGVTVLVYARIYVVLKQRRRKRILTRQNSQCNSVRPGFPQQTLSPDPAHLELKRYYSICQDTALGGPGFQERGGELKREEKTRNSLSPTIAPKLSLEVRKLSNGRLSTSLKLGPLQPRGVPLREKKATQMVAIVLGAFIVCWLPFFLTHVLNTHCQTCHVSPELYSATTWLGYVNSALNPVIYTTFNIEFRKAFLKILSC
Sequence of 5-hydroxytryptamine receptor 7 (P34969 whole entry): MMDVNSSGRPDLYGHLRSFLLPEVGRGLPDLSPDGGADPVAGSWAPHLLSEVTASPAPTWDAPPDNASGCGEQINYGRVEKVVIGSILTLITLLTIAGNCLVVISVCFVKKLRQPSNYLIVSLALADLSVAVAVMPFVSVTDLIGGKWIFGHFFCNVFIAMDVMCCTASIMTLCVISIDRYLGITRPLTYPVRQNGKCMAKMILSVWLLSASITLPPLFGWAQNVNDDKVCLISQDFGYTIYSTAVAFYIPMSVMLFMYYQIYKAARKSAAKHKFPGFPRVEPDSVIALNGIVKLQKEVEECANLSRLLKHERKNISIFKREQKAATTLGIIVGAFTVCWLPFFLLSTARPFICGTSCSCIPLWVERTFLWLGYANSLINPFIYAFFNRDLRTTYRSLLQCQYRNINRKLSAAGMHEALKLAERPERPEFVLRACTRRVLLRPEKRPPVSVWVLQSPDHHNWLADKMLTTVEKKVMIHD

`Cc1ncccc1Oc1ccc(NC(=O)c2cc3ccccc3[nH]2)cn1` gave an IC50 in assay [1] of 0.059 µM.
`O=C(Nc1ccc(OCc2ccccn2)nc1)c1c[nH]c2ccccc12` had a 50% inhibitory concentration (IC50) in assay [1] of 0.006 µM.
For the compound `O=C(Nc1ccc(Oc2cccnc2)nc1)c1c[nH]c2ccccc12`, the IC50 (in assay [2]; in assay [3]; at D(3) dopamine receptor; in assay [4]; on D(2) dopamine receptor; on D(4) dopamine receptor) was > 10 µM throughout. For the same compound, the IC50 in assay [5] is > 1 µM.
For `O=C(Nc1ccc(Oc2cccnc2Cl)nc1)c1c[nH]c2ccccc12`, on D(4) dopamine receptor, the IC50 was > 10 µM.
As for `O=C(Nc1cccnc1)c1c[nH]c2ccccc12`, the IC50 in assay [1] is > 10 µM.
Regarding `Cc1cc2c(cc1C(F)(F)F)N(C(=O)Nc1ccc(Oc3cccnc3C)nc1)CC2` [SB-243213], the IC50 at D(4) dopamine receptor is > 1 µM.

What is called IC50 is the concentration at which inhibition is half-maximal. Read a high IC50 as weaker potency.
